Here are results for 17 compounds from patent US4119635A, “Substituted 1,2,4-triazole derivatives” (Gruppo Lepetit S.p.A., priority 1971, dated 1978).

For data set [1], the system named is mice. Nature of the data set: Righting reflex (S. Irwin scheme). To be noted: Mus musculus, ip, read-out: Impairment of righting reflex ED50. The data set is classed as in vivo. The source says:
(§1) As stated before, the compounds of the invention have CNS depressant utility. More exactly, the compounds of Examples 1,2,3,5-10, 14, 31(42), 32(56), 34, 35 and 45(55) are useful as sedatives and hypnotics. These pharmacological properties were ascertained by following the operative scheme and the manipulation procedure described by S. Irwin in Psychopharmacologia (Berl.), 13, 222, 1968. Especially, there were studied the biological effects of the compounds on two of the parameters which are closely related to the above properties, namely the "spontaneous activity" and the "righting reflex". The effects of the compounds on these two parameters were expressed as ED50 values ie., the amount of compound tested which reduces the spontaneous activity and righting reflex scores of test animals to 50% of those of the controls. The scores are the same as those reported by S. Irwin in the cited paper. For each compound it was also determined the minimal dosis which produces complete hypnosis of the test animals (MHD).
(§2) The obtained results are summarized in the following table, which also reports the toxicities of the tested substances, expressed as LD50 values. For comparison purposes, also the activity of two known compounds was determined. The known compounds are 1-methyl-3,5-diphenyl-1,2,4-triazole (Compound A, Atkinson et al. Journ. Chem. Soc., 1954, 141, 1954) and 1-methyl-3-phenyl-5-(p-chlorophenyl)-1,2,4-triazole (Compound B, Huisgen et al., Journ. Org. Chem., 24, 892, 1959).

The test system of data set [2] is mice. Nature of the data set: Minimal dosis which produces complete hypnosis (MHD). Format: in vivo. As to conditions: Mus musculus, ip, read-out: Minimal hypnotic dosis.
Source text: as §1

Another data set is described as follows: Toxicity (LD50). As to conditions: mouse, in vivo, ip. The protocol:
as §2

Data set [3] has as its system mice. The data set can be described thus: Spontaneous activity (S. Irwin scheme). Format: in vivo. As to conditions: Mus musculus, ip, read-out: Decrease of spontaneous activity ED50.
Source text: as §1, §2

In a further data set the test system is rats. Nature of the data set: Secondary response avoidance test (G. Maffii), antianxiety effect. Format: in vivo. As to conditions: 20 mg/kg i.p. The protocol: The compounds of Examples 34 and 45(55) are also useful as anxiety relieving means. This property was investigated on the basis of the secondary response avoidance test, which was performed as described by G. Maffii, Journ. Pharm. Pharmacol., 11, 192, 1959.

[4] abbreviates: mice, dose reducing score to 50% of controls.

Molecules are shown by their SMILES. Where two headings read alike, the source gives them in different places.

As for `Cc1ccccc1-c1nc(-c2ccccc2)nn1C` [31(42), 1-Methyl-5-(o-tolyl)-3-phenyl-1,2,4-triazole], the ED50 (commonly the dose at which the effect has come halfway, by size or by number of responders) in the data set with mice [1] is 50 mg/kg; in the data set on mice [3] it was 60 mg/kg. Also, in the data set with mice [2] (mice, complete hypnosis), the minimal effective dose came out at 300 mg/kg. Moreover, the median lethal dose (LD50) (commonly the dose expected to kill half of the subjects tested) in the data set “Toxicity (LD50)” (mice, read-out: Toxicity LD50) was over 1000 mg/kg.
Regarding `Cc1cccc(-c2nc(-c3ccccc3C)n(C)n2)c1` [32(56), 1-Methyl-3-(m-tolyl)-5-(o-tolyl)-1,2,4-triazole], the ED50 came out at 20 mg/kg in the data set on mice [1] and 30 mg/kg in the data set on mice [3]. In addition, the minimal effective dose in the data set on mice [2] (mice, complete hypnosis) turned out to be 200 mg/kg. In addition, the median lethal dose (LD50) in the data set “Toxicity (LD50)” (mice, read-out: Toxicity LD50) is over 1000 mg/kg.
On to `Cc1ccccc1-c1nc(-c2cccc(Cl)c2)nn1C` [45(55), 1-Methyl-3-(3-chlorophenyl)-5-(o-tolyl)-1,2,4-triazole], for which the ED50 in the data set on mice [1] is 50 mg/kg; in the data set on mice [3], 30 mg/kg. The minimal effective dose in the data set with mice [2] (mice, complete hypnosis) worked out at 300 mg/kg. Moreover, the LD50 in the data set “Toxicity (LD50)” (mice, read-out: Toxicity LD50) worked out at 700 mg/kg. Further, in the data set with rats, the antianxiety effect entry is recorded as “remarkable antianxiety effect”.
As to `Cn1nc(-c2ccccc2)nc1-c1ccccc1` [Compound A, 1-methyl-3,5-diphenyl-1,2,4-triazole, reference compound], the values for the ED50 in the data set on mice [1] and in the data set with mice [3] were 300 mg/kg and over 100 mg/kg, respectively. In the data set on mice [2], the minimal effective dose is over 1000 mg/kg. For the same compound, the LD50 in “Toxicity (LD50)” (mice, read-out: Toxicity LD50) was determined as 1000 mg/kg.
On to `Cn1nc(-c2ccccc2)nc1-c1ccc(Cl)cc1` [Compound B, 1-methyl-3-phenyl-5-(p-chlorophenyl)-1,2,4-triazole, reference compound], for which the ED50 in the data set on mice [1] (setting [4]) and in the data set with mice [3] (setting [4]) was over 300 mg/kg each time. For the same compound, the minimal effective dose in the data set with mice [2] (mice, complete hypnosis) was over 600 mg/kg. The LD50 in the data set “Toxicity (LD50)” (mice, read-out: Toxicity LD50) is over 1000 mg/kg.
As for `Cn1nc(-c2ccccc2)nc1-c1ccccc1CO` [Example 1, 5-(2-Hydroxymethylphenyl)-1-methyl-3-phenyl-1,2,4-triazole], the ED50 with mice [1] (setting [4]) was 100 mg/kg; with mice [3] (setting [4]), 60 mg/kg. Further, in the data set with mice [2] (mice, complete hypnosis), the minimal effective dose came to 300 mg/kg. Further, the 50% lethal dose (LD50) in the data set “Toxicity (LD50)” (mice, read-out: Toxicity LD50) stood at 1000 mg/kg.
On to `Cn1nc(-c2ccccc2Cl)nc1-c1ccccc1CO` [Example 2], for which the ED50 in the data set with mice [1] and in the data set on mice [3] was 60 mg/kg in each case. Besides, in the data set with mice [2] (mice, complete hypnosis), the minimal effective dose is 300 mg/kg. The 50% lethal dose (LD50) in the data set “Toxicity (LD50)” (mice, read-out: Toxicity LD50) was determined as 500 mg/kg.
For the compound `Cn1nc(-c2cccc(Cl)c2)nc1-c1ccccc1CO` [Example 3], the ED50 worked out at 10 mg/kg with mice [1] and 30 mg/kg in the data set on mice [3]. For the same compound, the minimal effective dose in the data set on mice [2] (mice, complete hypnosis) stood at 200 mg/kg. The LD50 in “Toxicity (LD50)” (mice, read-out: Toxicity LD50) came out at 500 mg/kg.
As for `Cn1nc(-c2cccc(F)c2)nc1-c1ccccc1CO` [Example 5], the median effective dose (ED50) in the data set with mice [1] is 50 mg/kg; with mice [3] it was 30 mg/kg. Also, the minimal effective dose in the data set with mice [2] (mice, complete hypnosis) is 150 mg/kg. The LD50 in the data set “Toxicity (LD50)” (mice, read-out: Toxicity LD50) was determined as 400 mg/kg.
`Cc1ccccc1-c1nc(-c2ccccc2CO)n(C)n1` [Example 6, 1-methyl-3-(o-tolyl)-5-(2-hydroxymethylphenyl)-1,2,4-triazole]: the ED50 in the data set on mice [1] was 25 mg/kg; in the data set on mice [3] it was 50 mg/kg. In addition, the minimal effective dose in the data set with mice [2] (mice, complete hypnosis) was 600 mg/kg. For the same compound, in “Toxicity (LD50)” (mice, read-out: Toxicity LD50), the LD50 amounted to 1000 mg/kg.
Turning to `Cc1cccc(-c2nc(-c3ccccc3CO)n(C)n2)c1` [Example 7], the 50% effective dose (ED50) with mice [1] (setting [4]) is 20 mg/kg; in the data set on mice [3] (setting [4]), 30 mg/kg. In addition, the minimal effective dose in the data set with mice [2] (mice, complete hypnosis) came to 80 mg/kg. This compound showed a 50% lethal dose (LD50) in the data set “Toxicity (LD50)” of 500 mg/kg.
For `Cc1ccc(-c2nc(-c3ccccc3CO)n(C)n2)cc1` [Example 8], in that order: 100 mg/kg, 80 mg/kg, 600 mg/kg and over 1000 mg/kg.
In the case of `COc1cccc(-c2nc(-c3ccccc3CO)n(C)n2)c1` [Example 9], the median effective dose (ED50) with mice [1] (setting [4]) and in the data set with mice [3] (setting [4]) was 60 mg/kg throughout. In addition, the minimal effective dose in the data set with mice [2] (mice, complete hypnosis) is 300 mg/kg. This compound came in with a 50% lethal dose (LD50) in “Toxicity (LD50)” of 1000 mg/kg.
For `Cn1nc(-c2cccc([N+](=O)[O-])c2)nc1-c1ccccc1CO` [Example 10, 1-methyl-3-(3-nitrophenyl)-5-(2-hydroxymethylphenyl)-1,2,4-triazole], the figures for the ED50 with mice [1] (setting [4]) and with mice [3] (setting [4]) were 40 mg/kg and 60 mg/kg, respectively. Moreover, the minimal effective dose in the data set on mice [2] (mice, complete hypnosis) came to 300 mg/kg. For the same compound, the LD50 in “Toxicity (LD50)” (mice, read-out: Toxicity LD50) is 1000 mg/kg.
Consider `Cn1nc(-c2ccc3c(c2)OCO3)nc1-c1ccccc1CO` [Example 14], for which the ED50 in the data set on mice [1] (setting [4]) and in the data set on mice [3] (setting [4]) was 80 mg/kg in each case. Moreover, in the data set with mice [2] (mice, complete hypnosis), the minimal effective dose came out at 300 mg/kg. In the data set “Toxicity (LD50)”, this compound registered a 50% lethal dose (LD50) of over 1000 mg/kg.
With `Cc1ccccc1-c1nc(-c2cccc(N)c2)nn1C` [Example 34, 1-Methyl-3-(3-aminophenyl)-5-(o-tolyl)-1,2,4-triazole], the ED50 was 20 mg/kg with mice [1] and 30 mg/kg in the data set with mice [3]. For the same compound, the minimal effective dose with mice [2] (mice, complete hypnosis) came out at 60 mg/kg. Besides, the LD50 in the data set “Toxicity (LD50)” (mice, read-out: Toxicity LD50) stood at 200 mg/kg. In the data set on rats, the antianxiety effect result is “remarkable antianxiety effect”.
Consider `COc1cccc(-c2nc(-c3ccccc3C)n(C)n2)c1` [Example 35, 1-Methyl-3-(3-methoxyphenyl)-5-(o-tolyl)-1,2,4-triazole], for which the median effective dose (ED50) is 50 mg/kg in the data set on mice [1] and 60 mg/kg with mice [3]. Besides, the minimal effective dose in the data set with mice [2] (mice, complete hypnosis) is 300 mg/kg. For the same compound, the LD50 in “Toxicity (LD50)” (mice, read-out: Toxicity LD50) stood at 1000 mg/kg.
